# In patent US11419902B2, “Compositions comprising bacterial strains” (4D Pharma Research Limited, priority 2018, dated 2022):
# Legend:
# histone deacetylase = test: Histone deacetylase activity in HT-29 cells; assay type: cell-based; conditions: 10% cell free supernatant, 48 hours
# Procedure: Cell free supernatants of stationary phase bacterial cultures were isolated by centrifugation and filtering in a 0.22 uM filter. HT-29 cells were used 3 days post confluence and stepped down in 1 mL DTS 24 hours prior to commencement of the experiment. The HT-29 cells were challenged with 10% cell free supernatant diluted in DTS and was is left to incubate for 48 hours. […] proteins were then extracted using the Sigma Aldrich […] extraction kit and samples were snap frozen prior to HDAC activity measurement. HDAC activity was assessed fluorometrically using the Sigma Aldrich (UK) kit.
# IL-8 = IL-8 secretion in HMC3 cells (ELISA); assay type: cell-based, Human; conditions: 10% cell-free supernatant 24 h, in the absence of stimulation (no TNF-α)
# Procedure: Human microglia HMC3 cells were grown in glutamine-supplemented EMEM media containing 15% heat inactivated FBS and 100 U/ml penicillin and 100 μg/ml streptomycin. HMC3 cells were plated in 24 well plates at a density of 50,000 cells/well. Cells were left in CO2 incubator to rest for 48 h. The cells were then washed in blank EMEM and pre-treated in 2% FBS growth media with 10 ng/ml TNF-α for 1 h. Thereafter 10% cell-free bacterial supernatants for NCIMB 42787 stationary growth cultures (isolated as described above) were added to TNF-α-treated and untreated wells and incubated in CO2 incubator at 37° C. for 24 h. Cell-free supernatants were collected and centrifugated at 10,000×g for 3 min and 4° C. Samples were aliquoted in 1.5 ml microtubes and stored in −80° C. for hIL-8 ELISA.
# Secretion of IL-8 was analysed using hIL-8 Standard ELISA Kits, according to the manufacturer's protocol in the cell-free supernatants from HMC3 cells treated as described above. Samples were measured at 405 nm with correction wavelength set at 655 nm on a microplate reader (iMark, Bio-Rad). Raw data were plotted and analysed using GraphPad Prism 7 software.
# splenocytes = test: Spleen cytokine assay (ex-vivo splenocyte assay); assay type: in vivo, mouse; conditions: mice administered MRx0029
# Procedure: Animals were allowed to habituate to their holding room for one week after arrival into the animal unit. They receive oral gavage (200 μL dose) of live biotherapeutics at a dose of 1×10^9 CFU for 6 consecutive days between 15:00 and 17:00. On day 7, the animals are decapitated, and tissues are harvested for experimentation.
# Spleens were collected immediately in 5 mL RPMI media following sacrifice and cultured immediately. Spleen cells were first homogenised in this RPMI media, followed by 5 mins incubation with 1 ml of RBC lysis buffer (11814389001 ROCHE, Sigma). A further 10 ml of RPMI media was added, followed by 200G centrifugation for 5 mins. The supernatant was then filtered through 40 um strainer. Cells were counted and seeded (4,000,000/mL media). After 2.5 h of adaptation, cells were stimulated with lipopolysaccharide (LPS-2 μg/ml) or concanavalin A (ConA-2.5 μg/ml) for 24 h. Following stimulation, the supernatants were harvested to assess the cytokine release using Proinflammatory Panel 1 (mouse) V-PLEX Kit (Meso Scale Discovery, Maryland, USA) for TNF-α, IL-10, IL-1β, Interferon γ, CXCL2 and IL6. The analyses were performed using MESO QuickPlex SQ 120, SECTOR Imager 2400, SECTOR Imager 6000, SECTOR S 600.
# The ex-vivo splenocyte assay involves challenging the splenocytes (cells isolated from the spleen—a main organ involved in immune defence), with a bacterio- or viral-mimetic challenge.
# NF-κB-Ap1 promoter = test: NF-κB promoter activation in HEK-TLR4 reporter cells (SEAP); assay type: cell-based, human; conditions: 10% supernatant 22 h, on its own (without LPS)
# Procedure: HEK293-Blue reporter cells stably expressing human TLR4 (HEK-TLR4), were cultured according to the manufacturer's instructions. Briefly, HEK-TLR4 cells were maintained in DMEM 4.5 g/L D-glucose supplemented with 10% (v/v) heat-inactivated FBS, 4 mM L-Glutamine, 100 U/ml penicillin, 100 μg/ml streptomycin, 100 μg/ml normocin, 1×HEK-Blue selection media.
# Briefly, cells were washed with PBS, dissociated in PBS and collected in growth media. Cells were plated in 96-well plates at a density of 25,000 cells/well. To evaluate the effect of bacteria strains on LPS inducing NF-κB promoter activation, cells were treated with 10 ng/ml LPS in presence or absence of 10% supernatants (isolated as described above) and incubated in a CO2 incubator. Treatments proceeded for 22 h at 37° C. and 5% CO2, after which the detection of Secreted Embryonic Alkaline Phosphatase (SEAP) activity from cell culture supernatant was performed using QUANTI-blue solution according to manufacturer's instructions. Briefly, 20 μl of cell-free supernatant was collected and analysed for the presence of SEAP by mixing with 200 μl of sterile-filtered QUANTI-Blue detection media. After 2 h incubation at 37° C., optical density was measured at 655 nm on a microplate reader (iMark microplate, Bio-Rad).
substance,measurement,setting,value
Megasphaera massiliensis MRx0029,levels of histone deacetylase activity,histone deacetylase,able reduce the levels of histone deacetylase activity
same,IL-8 secretion,IL-8,induces IL-8 secretion
same,interferon-γ production from splenocytes,splenocytes; following a challenge with LPS,reduction
same,interleukin-1β production from splenocytes,splenocytes; following a challenge with LPS,reduction
same,interleukin-6 production from splenocytes,splenocytes; following a challenge with LPS,reduction
same,levels of the chemoattractant CXCL1 from splenocytes,splenocytes,increase in the levels of the chemoattractant CXCL1
same,NF-κB-Ap1 promoter activation,NF-κB-Ap1 promoter,induced NF-κB-Ap1 promoter activation
